Results: patent US11285188B2, “Composition for preventing or treating metabolic diseases containing artemisiae capillaris herba and citrus unshiu peel complex extracts as active ingredients” (Medicare Pharmaceuticals Inc., priority 2018, dated 2022)

Test system: high-fat diet mouse model
Test: Therapeutic effect on hyperlipidemia and hypercholesterolemia in high-fat diet mouse model (blood cholesterol and triglycerides)
Type: in vivo
Conditions: high-fat diet female ICR mice, oral once a day for 12 weeks; complex extracts 100 mg/kg/day, Lovastatin 20 mg/kg/day
Protocol: 64 six-week-old female ICR mice were purchased from SLC Co. and acclimated for one week under breeding conditions of a temperature range of 22±1° C., a humidity range of 41±1%, and a 12-hour light/12-hour dark cycle. During this period, the mice were fed a normal diet. Then, the mice were randomly divided into 16 and 48 individuals. To adapt the mice to feed, the 16 individuals (a normal diet-fed group) were fed a normal diet (CA.170481, Teklad Co.) and the 48 individuals (a high-fat diet-fed group) were fed a high-fat diet (D12451, Research Diets Co.) containing 45 kcal % fat under the same breeding conditions as above for one week.
Specifically, eight mice were selected from the normal diet-fed group and assigned to a normal diet group. 24 mice were selected from the high-fat diet-fed group, eight of which were assigned to a high-fat diet group, a high-fat diet+complex extracts administration group, and a high-fat diet+Lovastatin administration group, respectively. Each experimental group was orally administered distilled water or the Artemisiae capillaris Herba and Citrus unshiu Peel complex extracts of Examples 1-3 containing the highest content of scoparone once a day for 12 weeks. In addition, a comparison group was orally administered Lovastatin (Hanmi Pharm. Co., Ltd), which is used to treat hyperlipidemia and hypercholesterolemia, once a day for 12 weeks. In this case, the complex extracts and Lovastatin were each suspended in distilled water and administered orally. In addition, the normal group was fed a normal diet and other experimental groups were fed a high-fat diet for 12 weeks.
In the experimental groups of Experimental Example <2-1>, changes in the contents of triglycerides and cholesterol were confirmed.
Specifically, each experimental group of Experimental Example <2-1> was orally administered samples for 12 weeks. On the last day of the experiment, all animals were bled under ether inhalation anesthesia, and 1 mL of the collected blood was centrifuged for 10 minutes at 3,000 rpm to isolate plasma. The contents of total cholesterol, triglycerides, and low density lipoprotein cholesterol (LDL) in the isolated plasma were measured using an Analyst III kit (Hemagen Diagnositics Co.) according to a manufacturer's procedure, and the content of high density lipoprotein cholesterol (HDL) was measured using an AU400 kit (Olympus Co.) according to a manufacturer's procedure.

Compound: CC[C@H](C)C(=O)O[C@H]1C[C@@H](C)C=C2C=C[C@H](C)[C@H](CC[C@@H]3C[C@@H](O)CC(=O)O3)[C@H]21 [Lovastatin]
- Serum content HDL: 62.44 ± 1.96 mg/dL
- Serum content LDL: 14.91 ± 0.46 mg/dL
- Serum content Total cholesterol: 83.26 ± 7.40 mg/dL
- Serum content Triglycerides: 81.43 ± 5.24 mg/dL
